Data taken from ChEMBL document CHEMBL1201862, “PubChem BioAssay data set” (2004).
Calls of active or inactive are those of the source.

Assays:
Albumin = Albumin (Bos taurus, UniProt P02769); assay: Counterscreen for inhibitors of T-cell receptor (TCR)-CD3 interaction: Fluorescence-based biochemical high throughput dose response assay to identify inhibitors of T-cell receptor (TCR)-CD3 interaction using a TAMRA-labeled BSA probe.; format: functional
[1] = target: Mitogen-activated protein kinase 10 (Homo sapiens, UniProt P53779); assay: Dose response biochemical screening assay for inhibitors of c-Jun N-Terminal Kinase 3 (JNK3). [Related pubchem assays: 746 ]
fMet-Leu-Phe receptor = target: T1, fMet-Leu-Phe receptor (Homo sapiens, UniProt P21462); assay: formyl peptide receptor binders – dose response (AID 519); format: functional
T1 sequence (P21462 whole entry): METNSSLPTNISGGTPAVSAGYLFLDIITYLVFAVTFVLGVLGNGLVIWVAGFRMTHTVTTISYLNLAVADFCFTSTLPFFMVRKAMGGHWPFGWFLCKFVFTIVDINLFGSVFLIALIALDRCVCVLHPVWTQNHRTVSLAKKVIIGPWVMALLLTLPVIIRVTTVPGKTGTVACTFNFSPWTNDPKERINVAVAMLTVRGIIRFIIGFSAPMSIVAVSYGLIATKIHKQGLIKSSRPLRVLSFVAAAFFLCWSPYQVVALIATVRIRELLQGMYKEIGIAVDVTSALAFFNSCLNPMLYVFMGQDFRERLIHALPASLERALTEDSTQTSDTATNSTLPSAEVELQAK

[2] = viability of PTEN-deleted HCT116 cells – cell-based, HCT116 PTEN knockout, dose response (AID 1047); format: functional;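 also: HCT116 colon tumor cells with PTEN knocked out; cells exposed to compound for 60 hours before readout; potency for loss of cell viability measured by luminescence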
[3] = viability of HCT116 lacking mutant beta-catenin – cell-based, human colon tumor, dose response (AID 1045); format: functional;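 also: HCT116 colon tumor cells with beta catenin knocked out; cells exposed to compound for 60 hours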
[4] = reduction of Shn3 3'UTR-driven luciferase in osteoblasts – cell-based, Clone20 osteoblasts, firefly luciferase, cherry-picked, dose response (AID 624132); format: functional;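 also: firefly luciferase luminescence from reporter carrying the Shn3 3'UTR in osteoblasts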
[5] = loss of viability in HepG2 cells – cell-based, CellTiter-Glo, cherry-picked, cytotoxicity control for Shn3 inhibitor project, dose response (AID 624134); format: functional
[6] = non-specific 3'UTR reporter inhibition in Clone20-Shn3RL – cell-based, Renilla luciferase, cherry-picked, counter-screen for Shn3 inhibitor project, dose response (AID 624133); format: functional
Protein Wnt-3a = Protein Wnt-3a (Mus musculus, UniProt P27467); assay: antagonism of Wnt3a pathway luciferase reporter – Wnt-LIGHT cells, luminescence, selectivity assay for Gli-SUFU antagonist project, dose response (AID 651570); format: functional; settings: read-out: IC50_Mean;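 also: Wnt-LIGHT reporter cells stimulated with conditioned medium from Wnt3a-producing cells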
[7] = target: T2, COUP transcription factor 2 (Homo sapiens, UniProt P24468); assay: Luminescence-based cell-based high throughput dose response assay to identify inhibitors of COUP-TFII (NR2F2).; format: functional;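 also: HEK293 cells transiently cotransfected with COUP-TFII expression vector and reporter; luciferase reporter luminescence driven by COUP-TFII from the pX2-168 reporter plasmid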
T2 sequence (P24468 whole entry): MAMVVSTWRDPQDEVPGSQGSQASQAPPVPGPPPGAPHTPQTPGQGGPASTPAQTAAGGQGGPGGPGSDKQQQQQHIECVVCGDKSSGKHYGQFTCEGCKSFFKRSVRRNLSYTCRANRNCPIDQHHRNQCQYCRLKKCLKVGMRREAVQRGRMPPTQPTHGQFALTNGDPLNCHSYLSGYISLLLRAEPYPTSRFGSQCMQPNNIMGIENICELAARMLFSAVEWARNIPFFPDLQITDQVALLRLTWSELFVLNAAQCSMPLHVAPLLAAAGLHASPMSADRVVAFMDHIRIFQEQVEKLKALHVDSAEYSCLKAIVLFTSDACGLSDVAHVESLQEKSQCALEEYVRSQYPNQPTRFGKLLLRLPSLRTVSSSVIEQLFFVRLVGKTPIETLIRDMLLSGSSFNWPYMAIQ

cells [8] = format: functional, cell-based
[9] = target: T3, Trace amine-associated receptor 1 (Homo sapiens, UniProt Q96RJ0); assay: Fluorescence-based cell-based high throughput dose response assay to identify agonists of the human trace amine associated receptor 1 (TAAR1).; format: functional
T3 sequence (Q96RJ0 whole entry): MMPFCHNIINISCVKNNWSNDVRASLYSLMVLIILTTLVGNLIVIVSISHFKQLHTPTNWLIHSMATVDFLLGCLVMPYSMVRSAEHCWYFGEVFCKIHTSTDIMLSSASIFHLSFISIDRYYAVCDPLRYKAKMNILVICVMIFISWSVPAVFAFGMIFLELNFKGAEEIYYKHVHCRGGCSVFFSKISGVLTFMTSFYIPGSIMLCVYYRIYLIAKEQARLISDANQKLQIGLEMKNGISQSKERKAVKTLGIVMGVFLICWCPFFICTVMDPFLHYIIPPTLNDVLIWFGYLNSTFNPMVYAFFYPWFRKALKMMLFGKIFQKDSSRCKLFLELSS

[10] = target: T3, Trace amine-associated receptor 1; assay: Counterscreen for agonists of the human trace amine associated receptor 1 (hTAAR1): Fluorescence-based cell-based high throughput dose response assay to identify hTAAR1 agonist that also desensitize TAAR1 receptor response.; format: functional
cells [11] = format: functional, cell-based; remark: listed apart in the source
HeLa = assay: viability loss in HeLa cells – cell-based, ATP luminescence, cherry-pick samples, cytotoxicity control, dose response (AID 687004); format: functional; settings: Homo sapiens
[12] = growth inhibition of yeast DHODH-expressing 3D7 parasites – SYBR Green, dry powder samples, dose response (AID 1159570); format: functional, cell-based;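 also: parasite growth measured after 72 hours of compound exposure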
[13] = toxicity to human HepG2 hepatoma cells – cell-based, plate reader, dry powder samples, cytotoxicity control, dose response (AID 1159569); format: functional;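 also: inhibitor potency with signal falling toward the positive control level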
[14] = P. falciparum Dd2 growth inhibitors, dose response, SYBR Green, cherry-picked samples (AID 1159567); format: functional, cell-based
[15] = Dd2 malaria parasite growth inhibition potency – SYBR Green, dry powder samples, dose response (AID 1159566); format: functional, cell-based;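 also: potency for growth inhibition with lower SYBR green DNA signal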
[16] = growth inhibition of PfATP4-mutant resistant parasites – NITD609-resistant line, SYBR Green, dry powder, dose response (AID 1159571); format: functional, cell-based;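 also: parasites synchronized at ring stage by sorbitol before testing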
[17] = reduced cellular PGC1a acetyl-lysine signal – cell-based, cherry-picked samples, dose response (AID 720514); format: functional;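 also: potency may reflect raised or lowered acetylation signal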
[18] = toxicity to human hepatoma HepG2 cells – cell-based, cherry-picked samples, cytotoxicity control, dose response (AID 1159577); format: functional
Cytochrome P450 2C19 = Cytochrome P450 2C19 (Homo sapiens, UniProt P33261); assay: Cytochrome panel assay with activity outcomes. Panel member name: p450-cyp2c19 Compounds with AC50 equal or less than 10 uM are considered active; format: functional; settings: read-out: AC50
Cytochrome P450 3A4 = Cytochrome P450 3A4 (Homo sapiens, UniProt P08684);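 also: CYP3A4 tested as one member of a cytochrome P450 panel screen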
Cytochrome P450 2C9 = Cytochrome P450 2C9 (Homo sapiens, UniProt P11712)
[19] = target: T4, Rac GTPase-activating protein 1 (Homo sapiens, UniProt Q9H0H5); assay: blockers of MgcRacGAP-driven Rac1 GTP hydrolysis – biochemical, ADP Hunter fluorescence, primary and confirmatory, confirmation (AID 624330); format: functional
T4 sequence (Q9H0H5 whole entry): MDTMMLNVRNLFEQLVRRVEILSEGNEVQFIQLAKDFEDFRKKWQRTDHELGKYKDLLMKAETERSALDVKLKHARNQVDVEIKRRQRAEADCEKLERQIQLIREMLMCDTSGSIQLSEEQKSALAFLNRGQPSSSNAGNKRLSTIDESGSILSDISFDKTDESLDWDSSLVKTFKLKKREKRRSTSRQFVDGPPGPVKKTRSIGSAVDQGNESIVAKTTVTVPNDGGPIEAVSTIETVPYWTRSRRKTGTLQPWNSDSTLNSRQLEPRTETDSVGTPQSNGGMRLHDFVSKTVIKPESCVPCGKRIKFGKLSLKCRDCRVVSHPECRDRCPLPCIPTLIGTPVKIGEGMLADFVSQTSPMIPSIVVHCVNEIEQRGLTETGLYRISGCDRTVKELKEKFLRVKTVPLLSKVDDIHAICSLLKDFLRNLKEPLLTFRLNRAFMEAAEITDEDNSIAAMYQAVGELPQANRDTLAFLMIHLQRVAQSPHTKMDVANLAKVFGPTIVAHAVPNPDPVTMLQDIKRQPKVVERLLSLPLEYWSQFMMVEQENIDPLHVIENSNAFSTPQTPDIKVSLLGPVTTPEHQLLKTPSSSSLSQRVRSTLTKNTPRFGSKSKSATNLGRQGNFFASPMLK

[20] = Luminescence-based cell-based high throughput dose response assay to identify activators of the DAF-12 from the parasite S. stercoralis (ssDAF-12).; format: functional
[21] = target: T5, Oxysterols receptor LXR-beta (Homo sapiens, UniProt P55055); assay: LXR agonists, Gal4 luciferase reporter, dose response, counter-screen for ssDAF-12 agonist project, cell-based, luminescence, HEK293, S. stercoralis campaign (AID 720737); format: functional; settings: read-out: IC50 (the source's name)
T5 sequence (P55055 whole entry): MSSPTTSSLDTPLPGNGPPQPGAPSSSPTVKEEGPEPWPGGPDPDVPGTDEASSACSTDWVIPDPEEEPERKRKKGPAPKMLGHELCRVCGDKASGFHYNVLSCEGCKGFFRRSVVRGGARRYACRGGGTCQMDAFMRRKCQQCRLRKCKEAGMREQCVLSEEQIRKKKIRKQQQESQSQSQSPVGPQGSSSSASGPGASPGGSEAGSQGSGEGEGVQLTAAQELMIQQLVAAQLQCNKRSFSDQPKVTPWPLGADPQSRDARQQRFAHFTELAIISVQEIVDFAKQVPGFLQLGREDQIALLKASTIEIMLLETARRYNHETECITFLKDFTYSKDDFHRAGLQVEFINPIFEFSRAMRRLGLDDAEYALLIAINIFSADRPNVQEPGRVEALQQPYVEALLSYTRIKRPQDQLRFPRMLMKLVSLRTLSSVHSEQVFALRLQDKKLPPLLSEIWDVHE

Sequence of Cytochrome P450 2C19 (P33261 whole entry): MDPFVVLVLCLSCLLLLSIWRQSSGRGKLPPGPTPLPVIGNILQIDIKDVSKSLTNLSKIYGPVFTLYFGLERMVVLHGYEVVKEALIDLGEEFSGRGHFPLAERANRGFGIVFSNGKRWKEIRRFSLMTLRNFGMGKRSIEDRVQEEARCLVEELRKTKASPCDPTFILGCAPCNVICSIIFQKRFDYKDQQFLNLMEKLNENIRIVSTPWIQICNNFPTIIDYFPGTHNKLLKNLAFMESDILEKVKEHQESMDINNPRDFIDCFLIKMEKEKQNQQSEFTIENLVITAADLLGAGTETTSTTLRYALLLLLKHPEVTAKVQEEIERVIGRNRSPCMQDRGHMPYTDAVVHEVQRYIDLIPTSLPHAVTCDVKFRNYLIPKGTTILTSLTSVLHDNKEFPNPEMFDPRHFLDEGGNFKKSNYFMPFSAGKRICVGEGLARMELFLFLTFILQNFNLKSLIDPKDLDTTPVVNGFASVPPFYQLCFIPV
Sequence of Cytochrome P450 3A4 (P08684 whole entry): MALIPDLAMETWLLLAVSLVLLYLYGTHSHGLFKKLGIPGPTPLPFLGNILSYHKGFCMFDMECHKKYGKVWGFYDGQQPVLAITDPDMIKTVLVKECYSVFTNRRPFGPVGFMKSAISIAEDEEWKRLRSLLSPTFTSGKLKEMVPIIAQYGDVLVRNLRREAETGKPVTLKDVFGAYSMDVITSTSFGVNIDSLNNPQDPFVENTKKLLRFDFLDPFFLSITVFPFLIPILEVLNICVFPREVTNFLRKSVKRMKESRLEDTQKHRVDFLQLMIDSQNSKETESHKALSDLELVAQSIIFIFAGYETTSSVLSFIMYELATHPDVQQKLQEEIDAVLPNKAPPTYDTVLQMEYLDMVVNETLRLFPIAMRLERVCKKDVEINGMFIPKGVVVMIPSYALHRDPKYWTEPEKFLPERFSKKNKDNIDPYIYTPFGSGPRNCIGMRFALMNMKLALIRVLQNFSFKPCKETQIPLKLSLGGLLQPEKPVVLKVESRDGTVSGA
Sequence of Albumin (P02769 whole entry): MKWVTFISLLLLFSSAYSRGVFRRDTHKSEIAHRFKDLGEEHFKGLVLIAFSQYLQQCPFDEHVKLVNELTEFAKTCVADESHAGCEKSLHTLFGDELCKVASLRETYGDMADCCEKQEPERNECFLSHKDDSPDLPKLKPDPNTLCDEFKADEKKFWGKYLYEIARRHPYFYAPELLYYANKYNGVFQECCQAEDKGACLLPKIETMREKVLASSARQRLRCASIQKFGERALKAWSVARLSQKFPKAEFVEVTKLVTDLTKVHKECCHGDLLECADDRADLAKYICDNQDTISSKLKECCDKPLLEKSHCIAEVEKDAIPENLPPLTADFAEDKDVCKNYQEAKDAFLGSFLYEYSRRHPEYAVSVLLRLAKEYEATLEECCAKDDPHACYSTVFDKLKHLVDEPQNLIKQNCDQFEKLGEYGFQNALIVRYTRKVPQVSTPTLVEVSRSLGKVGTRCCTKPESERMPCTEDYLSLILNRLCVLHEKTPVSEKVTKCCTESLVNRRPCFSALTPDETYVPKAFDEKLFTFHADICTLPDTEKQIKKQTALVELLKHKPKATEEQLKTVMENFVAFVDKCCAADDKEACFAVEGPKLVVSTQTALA
Sequence of Mitogen-activated protein kinase 10 (P53779 whole entry): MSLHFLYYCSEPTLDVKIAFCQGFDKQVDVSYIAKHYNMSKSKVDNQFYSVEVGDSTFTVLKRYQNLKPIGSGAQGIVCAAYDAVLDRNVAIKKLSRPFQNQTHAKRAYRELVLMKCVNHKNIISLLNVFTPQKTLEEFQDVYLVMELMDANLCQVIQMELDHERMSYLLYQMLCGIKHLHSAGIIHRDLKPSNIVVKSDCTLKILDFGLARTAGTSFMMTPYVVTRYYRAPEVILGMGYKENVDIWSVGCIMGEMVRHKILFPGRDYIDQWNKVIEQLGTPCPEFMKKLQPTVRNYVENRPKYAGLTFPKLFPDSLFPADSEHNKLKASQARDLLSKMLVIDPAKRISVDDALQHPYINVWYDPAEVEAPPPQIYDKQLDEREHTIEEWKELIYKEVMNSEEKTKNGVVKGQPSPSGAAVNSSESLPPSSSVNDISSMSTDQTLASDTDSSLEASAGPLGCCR
Sequence of Cytochrome P450 2C9 (P11712 whole entry): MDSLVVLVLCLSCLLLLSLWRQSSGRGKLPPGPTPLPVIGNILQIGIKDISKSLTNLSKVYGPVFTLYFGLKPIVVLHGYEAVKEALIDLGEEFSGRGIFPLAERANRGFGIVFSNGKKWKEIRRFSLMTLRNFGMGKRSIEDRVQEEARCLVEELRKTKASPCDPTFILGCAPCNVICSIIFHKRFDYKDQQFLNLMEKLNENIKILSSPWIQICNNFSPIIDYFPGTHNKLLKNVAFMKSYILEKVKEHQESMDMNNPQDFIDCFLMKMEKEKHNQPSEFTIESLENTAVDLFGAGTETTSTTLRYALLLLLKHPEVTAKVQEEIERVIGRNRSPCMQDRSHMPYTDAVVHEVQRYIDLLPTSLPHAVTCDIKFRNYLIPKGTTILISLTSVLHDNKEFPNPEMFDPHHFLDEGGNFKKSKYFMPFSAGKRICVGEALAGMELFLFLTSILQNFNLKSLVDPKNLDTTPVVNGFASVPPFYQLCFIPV
Sequence of Protein Wnt-3a (P27467 whole entry): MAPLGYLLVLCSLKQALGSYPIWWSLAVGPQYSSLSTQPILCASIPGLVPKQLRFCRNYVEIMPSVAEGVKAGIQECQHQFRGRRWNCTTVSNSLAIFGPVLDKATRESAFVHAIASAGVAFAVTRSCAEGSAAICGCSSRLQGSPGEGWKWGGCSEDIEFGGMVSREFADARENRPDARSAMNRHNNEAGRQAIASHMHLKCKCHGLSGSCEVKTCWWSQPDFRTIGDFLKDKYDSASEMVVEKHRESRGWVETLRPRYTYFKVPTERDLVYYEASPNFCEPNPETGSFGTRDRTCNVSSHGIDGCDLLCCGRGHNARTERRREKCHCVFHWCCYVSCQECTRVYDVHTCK

## Cc1ccc(S(=O)(=O)N2CCC(C(=O)NNC(=O)c3ccccc3O)CC2)cc1C
Albumin
  IC50: > 94.1 µM (inactive)

## COCCN1Cc2cccc(C(=O)NCc3ccc4c(c3)OCO4)c2C1=O
[1]
  IC50: > 31 µM (not active)
fMet-Leu-Phe receptor
  Ki: > 66.7 µM (inactive)

## CCCCOC(=O)c1[nH]c2c(c1C)C(=O)CC(c1cc(OC)c(OC)c(OC)c1)C2 (configuration not stated)
[2]
  EC50: 79.5 µM (active)
[3]
  EC50: 58.8 µM (active)
[4]
  AC50: 1.35 µM (active)
[5]
  AC50: 62 µM (active)
[6]
  AC50: 3.74 µM (active)
Protein Wnt-3a
  IC50: 8.48 µM (active)
[7]
  IC50: 7.91 µM (active)

## C#CCOC(=O)CCC(=O)NCCc1ccccc1
Cells [8]
  IC50: > 29.9 µM (inactive)
[9]
  EC50: 3.07 µM (active)
[10]
  IC50: 1.66 µM (active)
Cells [11]
  EC50: > 29.9 µM (inactive)

## CCC(CCC(=O)Nc1cccc(C(=O)O)c1)C(=O)O (configuration not stated)
fMet-Leu-Phe receptor
  Ki: > 66.7 µM (inactive)

## CCCNC(=O)C[C@@H]1CC[C@@H]2[C@H](COc3ccc(NC(=O)CCC)cc3C(=O)N2C)O1
HeLa
  AC50: 9.9 µM (active)

## COc1ccc(C#Cc2ccc3c(c2)[C@H]2[C@H](CCN2Cc2ccncc2)[C@@H](CO)N3)cc1
[12]
  AC50: 1.95 µM (active)
[13]
  AC50: 62.5 µM (active)
[14]
  AC50: 2.38 µM (active)
[15]
  AC50: 1.16 µM (active)
[16]
  AC50: 1.67 µM (active)

## Cc1cccc(S(=O)(=O)N(C)C[C@@H]2OCc3cn(nn3)CCCC(=O)N([C@@H](C)CO)C[C@H]2C)c1
[17]
  AC50: 34.4 µM (active)

## C[C@H]1CN([C@@H](C)CO)C(=O)c2c(c3ccccc3n2C)-c2ccccc2CO[C@@H]1CN(C)Cc1cccc2c1OCCCO2
[14]
  AC50: 4.74 µM (active)
[18]
  AC50: 29.8 µM (active)

## CC(NC1=NS(=O)(=O)c2ccccc21)C(=O)NCCCc1ccccc1 (configuration not stated)
[17]
  AC50: 11.4 µM (active)

## CCOc1ccccc1Oc1c(C)oc2cc(OC(=O)c3ccco3)ccc2c1=O
Cytochrome P450 2C19
  AC50: 3.16 µM (inconclusive)
fMet-Leu-Phe receptor
  Ki: 20.5 µM (inactive)
Cytochrome P450 3A4
  AC50: 20 µM (inconclusive)
Cytochrome P450 2C9
  AC50: inconclusive

## Cc1ccc(/C=N/Nc2ccc(Cl)c(C(=O)O)c2)s1
[19]
  IC50: 80.5 µM (active)
[20]
  IC50: > 67.6 µM (inactive)
[21]
  EC50: > 67.6 µM (inactive)
